Experimental findings from patent US4616086A, “Piperazine-substituted aryl and aralkyl carboxylic acids useful for treating infirmaties caused by excess lipids or thrombocyte” (Boehringer Mannheim GmbH, priority 1981, dated 1986) are described below.

Read-outs that look alike come from different tables or passages of the source.

Usually inhibition stands for the change of the read-out against control, counted positive when it falls.

Data set [1] concerns cholesterol and triglyceride levels in the serum. The data set can be described thus: Lowering of Lipid Levels (cholesterol and triglyceride levels in the serum of male rats of normal metabolism, 7 days). It counts as in vivo. The conditions noted are these: 100 mg/kg/d for 7 days in methyl cellulose suspension, serum 3 hours after last dose, in comparison to control; for inhibition in vivo at 100 mg/kg/day: Rattus norvegicus, po. As for the experimental part: In each case, 10 male rats of normal metabolism were administered the test substance for 7 days in a dosage of 100 mg/kg/d in methyl cellulose suspension. At the end of the experiment, 3 hours after the last does was administered, the cholesterol and triglyceride levels in the serum were determined. The changes are given in Table I expressed as a percentage in comparison to control for a representative selection of compounds.

For data set [2], the system named is thrombocyte aggregation. The data set can be described thus: Inhibition of Aggregation (Born test, adrenalin-induced thrombocyte aggregation, platelet-rich plasma). The conditions noted are these: for % of inhibition of thrombocyte aggregation: human PRP, adrenalin 5×10^-6 mol/l, 2nd phase, test concentration 14^-4 mol/l [sic]. Format: cell-based, human. The protocol: Venous blood from subjects of normal metabolism is mixed with sodium citrate (9:1). The erythrocytes are settled by centrifugation at 150 g. The thrombocytes are concentrated in the supernatant. This supernatant is referred to as platelet-rich plasma (PRP). An aliquot of the PRP is placed in the cell of an aggregometer (Universal Aggregometer mfd. by Braun Melsungen) and there stirred by means of a small magnet. The substance to be tested is added in an aqueous solution (pH approx. 7). Changes in the light transmission in the suspension are continuously registered by a recorder. After spontaneous aggregation ends, aggregation is triggered by the addition of adrenalin (end concentration 5×10^-6 mol/l). Larger clumps of thrombocytes form and this causes the transmission of light through the suspension to increase.
The adrenalin-induced aggregation takes place in two phases, i.e., the light transmission first increases, then briefly remains steady, and then again increases. Only the second phase of the aggregation can be influenced by aggregation inhibitors.
With the same PRP, aggregation is induced with adrenalin after addition of the test substance and the course of the aggregation is registered with the recorder. The angle of the 2nd phase from the horizontal is again determined and the ratio of the two angles gives the percentage of inhibition of the 2nd phase of the thrombocyte aggregation.
All substances were tested in a concentration of 14^-4 mol/l in determining their aggregation inhibiting action.

Where [3] appears, read: read-out: % of reduction of cholesterol.
Setting [4] is: read-out: % of reduction of triglycerides.
The mark [5] stands for this setting: Homo sapiens, read-out: inhibition of the 2nd phase of thrombocyte aggregation (standard).

Consider `CS(=O)(=O)N1CCN(CCc2ccc(C(=O)O)cc2)CC1` [33 m], for which the inhibition in vivo at 100 mg/kg/day was 20% in data set [1] (setting [3]) and 30% in data set [1] (setting [4]).

As to `CC(C)(C)c1cc(CCN2CCN(c3ccc(CC(=O)O)cc3)CC2)cc(C(C)(C)C)c1O` [50 j], the inhibition in vivo at 100 mg/kg/day in data set [1] (setting [3]) turned out to be 40%; in data set [1] (setting [4]), 0%.

On to `O=C(O)Cc1ccc(CCN2CCN(S(=O)(=O)c3ccccc3)CC2)cc1` [50 g], for which the inhibition in vivo at 100 mg/kg/day in data set [1] (setting [3]) came out at 28%; in data set [1] (setting [4]), 9%.

Consider `O=C(O)c1ccc(CCN2CCN(Cc3ccc(Cl)cc3)CC2)cc1` [33 b], for which the inhibition in vivo at 100 mg/kg/day was 40% in data set [1] (setting [3]) and 30% in data set [1] (setting [4]). Besides, the “% of inhibition of thrombocyte aggregation” value in data set [2] stood at 19%.

Regarding `CCOC(=O)c1ccc(N2CCNCC2)cc1` [Example 1, Ethyl 4-(piperazin-1-yl)-benzoate], for the setting “hydrochloride”, the hygroscopicity entry was “hydroscopic”.

For `CC(C)(C)c1cc(CCC(=O)N2CCN(CCc3ccc(C(=O)O)cc3)CC2)cc(C(C)(C)C)c1O` [33 l], in data set [1], the “% of reduction of cholesterol” value amounted to 38% and the “% of reduction of triglycerides” value stood at 22%.

`O=C(O)c1ccc(CCN2CCN(C(=O)c3ccc(Cl)cc3)CC2)cc1` [33 i]: in data set [1], the “% of reduction of cholesterol” value came to 41% and the “% of reduction of triglycerides” value came out at 24%.

Turning to `CC(Cc1ccc(Cl)cc1)CN1CCN(CCc2ccc(C(=O)O)cc2)CC1` (centres unmarked) [33 u], the results for the inhibition in vivo at 100 mg/kg/day in data set [1] (setting [3]) and in data set [1] (setting [4]) were 28% and 32%, respectively.

For `O=C(O)c1ccc(N2CCN(CCCc3ccccc3)CC2)cc1` [13 i], the figures for the inhibition in vivo at 100 mg/kg/day in data set [1] (setting [3]) and in data set [1] (setting [4]) were 38% and 15%, respectively.

In the case of `O=C(O)c1ccc(CCN2CCN(S(=O)(=O)c3ccc(Cl)cc3)CC2)cc1` [33 o], the figures for the inhibition in vivo at 100 mg/kg/day in data set [1] (setting [3]) and in data set [1] (setting [4]) were 35% and 13%, respectively.

For the molecule `O=C(O)c1ccc(CCN2CCN(CC=Cc3ccc(Cl)cc3)CC2)cc1` [34 c], the inhibition in vivo at 100 mg/kg/day in data set [1] (setting [3]) amounted to 30%; in data set [1] (setting [4]), 40%. Further, the “% of inhibition of thrombocyte aggregation” value in data set [2] came out at 7%.

With `CC(=Cc1ccc(CCN2CCN(C(=O)c3ccc(Cl)cc3)CC2)cc1)C(=O)O` [67 d1], the inhibition in vivo at 100 mg/kg/day in data set [1] (setting [3]) was 37%; in data set [1] (setting [4]), 9%.

Take `O=C(O)c1ccc(CCN2CCN(CCOc3ccccc3)CC2)cc1` [33 c]: the inhibition in vivo at 100 mg/kg/day in data set [1] (setting [3]) was determined as 13%; in data set [1] (setting [4]), 11%. Moreover, the “% of inhibition of thrombocyte aggregation” value in data set [2] came to 40%.

On to `O=C(O)c1ccc(CCN2CCN(c3ccc(Oc4ccccc4)cc3)CC2)cc1` [33 r], for which the inhibition in vivo at 100 mg/kg/day in data set [1] (setting [3]) was 33%; in data set [1] (setting [4]), 15%.

In the case of `O=C(O)c1ccc(CCN2CCN(Cc3ccccc3Cl)CC2)cc1` [34 i], in data set [1], the “% of reduction of cholesterol” value amounted to 21% and the “% of reduction of triglycerides” value stood at 10%. Further, the “% of inhibition of thrombocyte aggregation” value in data set [2] is recorded as 100%.

As to `CC(CN1CCN(CCc2ccc(C(=O)O)cc2)CC1)Oc1ccc([N+](=O)[O-])cc1` (centres unmarked) [34 s], the inhibition in vivo at 100 mg/kg/day amounted to 47% in data set [1] (setting [3]) and 21% in data set [1] (setting [4]).

For the molecule `O=C(O)c1ccc(CCN2CCN(CC=Cc3ccc([N+](=O)[O-])cc3)CC2)cc1` [Example 34o, 4-{2-[1-(4-nitrocinnamyl)-piperazin-4-yl]-ethyl}-benzoic acid], the light sensitivity result is reported as “Light sensitive”.

Regarding `CCCCCCCCCCCCCCCCN1CCN(c2ccc(CCC(=O)O)cc2)CC1` [Example 58, 3-[4-(1-n-Hexadecylpiperazin-4-yl)-phenyl]-propionic acid], the inhibition in vivo at 100 mg/kg/day in data set [1] (setting [3]) was 17%; in data set [1] (setting [4]), 6%.

As to `O=C(O)Cc1ccc(N2CCN(S(=O)(=O)c3ccccc3)CC2)cc1` [50 o], the values for the inhibition in vivo at 100 mg/kg/day in data set [1] (setting [3]) and in data set [1] (setting [4]) were 26% and 14%, respectively.

Regarding `O=C(O)Cc1ccc(CCN2CCN(S(=O)(=O)c3ccc(Cl)cc3)CC2)cc1` [49 e], the inhibition in vivo at 100 mg/kg/day turned out to be 41% in data set [1] (setting [3]) and 8% in data set [1] (setting [4]).

Consider `CCCCOC(=O)CCc1ccc(N2CCN(C(=O)C=Cc3ccc(Cl)cc3)CC2)cc1` [Example 55, n-Butyl 3-{4-[1-(4-chlorocinnamoyl)-piperazin-4-yl]-phenyl}-propionate], for which the light sensitivity entry is listed as “light-sensitive”.

With `CC(CN1CCN(c2ccc(C=CC(=O)O)cc2)CC1)Oc1ccccc1` (centres unmarked) [65 d1], the inhibition in vivo at 100 mg/kg/day in data set [1] (setting [3]) came to 5%; in data set [1] (setting [4]) it was 20%.

Regarding `CC(C)(C)c1cc(C=CC(=O)N2CCN(CCc3ccc(CC(=O)O)cc3)CC2)cc(C(C)(C)C)c1O` [50 f], the values for the inhibition in vivo at 100 mg/kg/day in data set [1] (setting [3]) and in data set [1] (setting [4]) were 40% and 16%, respectively.

`CC(=O)Oc1ccccc1C(=O)O` [acetylsalicylic acid, reference compound]: in data set [2] (setting [5]), the inhibition at 50 µM came to 0% and the inhibition at 100 µM is 100%.

Turning to `COc1ccc(OC(C)CN2CCN(CCc3ccc(C(=O)O)cc3)CC2)cc1` (centres unmarked) [33 f], in data set [1], the “% of reduction of cholesterol” value was found to be 37% and the “% of reduction of triglycerides” value is listed as 42%.

For `CC(CN1CCN(CCc2ccc(C(=O)O)cc2)CC1)Oc1ccccc1` (centres unmarked) [33 d], in data set [1], the “% of reduction of cholesterol” value worked out at 43% and the “% of reduction of triglycerides” value came to 41%. Moreover, in data set [2], the “% of inhibition of thrombocyte aggregation” value amounted to 6%.

Regarding `CCOC(=O)c1ccc(CCCN2CCN(C(=O)c3ccc(Cl)cc3)CC2)cc1` [55 b], the inhibition in vivo at 100 mg/kg/day is 33% in data set [1] (setting [3]) and 3% in data set [1] (setting [4]).
